The values that follow come from patent US7314726B2, “Beta secretase exosite binding peptides and methods for identifying beta secretase modulators” (Bristol-Myers Squibb Company, priority 2002, dated 2008).

For the test, the target named is BACE (Homo sapiens, UniProt P56817). In words: Phage ELISA of phage-displayed peptides on immobilised BACE. The test is classed as binding. Further details: The cDNA for the catalytic domain of human BACE (residues 1-460) was PCR-amplified; human IgG1 heavy chain (C, cleaved yes); thrombin cleavage site (C); made in house; host or cells: CHO DG44 cells (stably transfected, secreted). To be noted: clones from solid phase panning at pH 7.0. As to the method:
Two highly selected and homologous 12 mer phage peptides bound BACE specifically and reproducibly in phage-ELISA tests. Bristol-Myers Squibb fUSE5-based C4C, C6C, 5- and 15 mer libraries, and M13-based C7C libraries, and 7- and 12 mer libraries obtained from New England Biolabs, Beverly, Mass. were panned for three cycles against BACE (produced as described herein in Example 3). BACE was immobilized by coating at 0.5 μg/well in 4 wells of Dynex Immulon 4HBX plates overnight at 4° C. in 0.1M NaHCO3 buffer, pH 9.0. Panning was by standard procedures at room temperature that involved blocking wells with 2% BSA in PBS and elution with 0.1M HCL, pH 2.2. The vector NTI alignment tool and visual inspection of sequences were employed to analyze the selected peptides.
After sequencing approximately 20-50 clones from each library after three cycles of selection, we prepared essentially all possible candidate clones (39 clones in total) for phage-ELISA to obtain direct evidence for affinity to BACE. […] We therefore sequenced additional 12 mer clones to try to find additional candidate clones. […] This […] (SEQ ID NO:20) peptide is homologous to […] (SEQ ID NO:19) and consistent with the specific binding of both those peptides to BACE. The […] (SEQ ID NO:20) peptide and […] (SEQ ID NO:19) peptides were the two most efficiently recovered clones with 13 and 9 copies, respectively. […]
On the technique in general: ELISA stands for enzyme-linked immunosorbent assay.

Chain of BACE (P56817 46-460 limits assumed): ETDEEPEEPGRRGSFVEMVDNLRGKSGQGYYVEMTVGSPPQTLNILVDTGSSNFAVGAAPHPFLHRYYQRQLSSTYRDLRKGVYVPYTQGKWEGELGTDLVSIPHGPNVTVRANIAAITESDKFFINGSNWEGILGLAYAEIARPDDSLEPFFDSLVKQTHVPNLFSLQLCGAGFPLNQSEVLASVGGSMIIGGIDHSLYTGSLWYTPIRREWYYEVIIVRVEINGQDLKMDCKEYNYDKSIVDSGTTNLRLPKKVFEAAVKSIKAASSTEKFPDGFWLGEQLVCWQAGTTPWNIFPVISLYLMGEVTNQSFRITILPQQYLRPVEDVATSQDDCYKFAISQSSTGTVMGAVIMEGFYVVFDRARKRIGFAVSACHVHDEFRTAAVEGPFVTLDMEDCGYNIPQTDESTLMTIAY

Consider Ac-NLTTYPYFIPLP-OH [BMS-561871], for which the “phage ELISA binding to BACE” value is recorded as “specifically bind to BACE”.
